The results in this text go back to paper PMC11586995, “Screening and Characterization of Sialic Acid-Binding Variable Lymphocyte Receptors from Hagfish” (BioTech, 2024).

The subject of this assay is ccombodies 2D8, 5G11, 6D2, and 4A1. Description: Competitive ELISA of monosaccharide haptens against ccombody binding to BSA-CC-Neu5Ac. Also on record: species or system Eptatretus burgeri. The following applies: hapten 50 to 0.39 mM, all four candidates. As to the method: ELISA was carried out according to the method of Lazarte et al., with some modifications. Screening for sialic acid-binding ccombodies was carried out by coating 100 μL of a 300 ng/well BSA-CC-Neu5Ac glycoconjugate onto high-binding 96-well ELISA plates (Corning, Glendale, AZ, USA), along with BSA only (without CC) as a negative control. Plates were left standing overnight at 4 °C, after which they were washed three times with 1X TBST (10 mM Tris-HCl, 150 mM NaCl, and 0.5% Tween) to remove unbound antigen. Plates were blocked for 30 min with blocking buffer comprising 5% skimmed milk in 1× TBST at room temperature, then washed once with 1X TBST. Ccombody supernatants from HEK293F cells were then added onto the plates, incubated for 1 h 30 min, followed by washing three times with 1X TBST. Antigen bound ccombodies were detected with mouse anti-VLRB antibody (11G5) in blocking buffer by incubation for 1 h, followed by washing three times to remove unbound 11G5. Finally, bound 11G5 antibodies were detected by incubating for 1 h with HRP-conjugated goat anti-mouse IgG (1:5000 v/v in blocking buffer), then washed four times. Binding was quantified by the addition of 100 μL developing buffer composed of 42 mM 3,3′,5,5′-tetramethylbenzidine and 1% H2O2, then color development for 30 min at room temperature. The reaction was stopped by adding 50 μL of 2 M H2SO4. The absorbance was then read at 450 nm using an xMark (BIO-RAD, Hercules, CA USA) microplate reader. Competitive inhibition was determined through ELISA as presented earlier, with some modifications. Optimal subsaturating dilutions of ccombody-culture supernatants were used based on the preliminary antibody titration data. Competitive inhibitors, two-fold serially diluted (50 to 0.39 mM), were mixed with a constant amount of ccombody supernatant diluted in 5% skimmed milk in 1X TBST, then incubated for 1 h at room temperature. Next, 100 μL of the mixture was subsequently transferred into another 96-well ELISA plate containing a constant amount of antigen (500 ng/well) which was pre-blocked with 5% skimmed milk in 1X TBST. Antigen-bound ccombodies were detected by 11G5 and HRP-conjugated goat anti-mouse IgG. The normalized and background-corrected OD450 values were plotted against the ligand concentration, and the half-maximal inhibitory concentration (IC50) was computed by curve fitting using the Four Parameter Logistic (4PL) Curve Calculator [27]. Values are expressed as the mean of three determinations.
A general note: An ELISA detects its analyte on a solid surface through an enzyme-linked reagent.

Structures are written as SMILES. “Also recorded” adds a separate entry of the source.

With `O=C[C@H](O)[C@@H](O)[C@@H](O)[C@H](O)CO` [galactose], the “Inhibition of ccombody binding by free hapten” value (“Inhibition … by free hapten” below) was “No significant inhibition”.
Regarding `OC[C@H]1OC(O)[C@H](O)[C@@H](O)[C@@H]1O` (stereo partly drawn) [glucose], the “Inhibition … by free hapten” value was “No significant inhibition”.
For the molecule `CC(=O)N[C@@H]1[C@@H](O)[C@@H](O)[C@@H](CO)O[C@@H]1O` [N-acetylgalactosamine], the “Inhibition … by free hapten” value was “No significant inhibition”.
Then `CC(=O)N[C@H]1[C@H]([C@H](O)[C@H](O)CO)OC(O)(C(=O)O)C[C@@H]1O` (stereo partly drawn) [Neu5Ac, N-acetylneuraminic acid], with “strong inhibition; also recorded: strong inhibitory effects”.
Regarding `CC(=O)N[C@@H]1[C@@H](O)[C@H](O)[C@@H](CO)O[C@H]1O` [N-acetylglucosamine], the “Inhibition … by free hapten” value is listed as “No significant inhibition”.
Then `OC[C@H]1OC(O)[C@@H](O)[C@@H](O)[C@@H]1O` (stereo partly drawn) [mannose], with “No significant inhibition”.
